Data published in patent US10294202B2, “Pyrrolidinones as herbicides” (FMC Corporation, priority 2013, dated 2019).

Assays:
barnyardgrass [1] = assay: Test A pre-/postemergence herbicide test; assay type: in vivo, Echinochloa crus-galli
In short: (§1)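 Approximately 10 days after treatment in the greenhouse, plants were compared with untreated controls and given a 0–100 visual injury rating. Applications: preemergence directed soil spray; postemergence on 2–10 cm plants at the one- to two-leaf stage.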

velvetleaf = assay: Test A pre-/postemergence herbicide test; assay type: in vivo, Abutilon theophrasti
In short: as §1

corn = assay: Test A pre-/postemergence herbicide test; assay type: in vivo, Zea mays
In short: as §1

giant foxtail = assay: Test A pre-/postemergence herbicide test; assay type: in vivo, Setaria faberii
In short: as §1

ducksalad = assay: Test B flooded paddy test; assay type: in vivo, Heteranthera limosa; settings: Flood, scale of 0 to 100 where 0 is no effect and 100 is complete control
In short: (§2)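 Plants grown to 2-leaf stage; pots flooded 3 cm above soil and compound applied directly into paddy water, depth held throughout. Visual rating against untreated controls after 13 to 15 days in greenhouse, 0 (no effect) to 100 (complete control).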

barnyardgrass [2] = assay: Test B flooded paddy test; assay type: in vivo, Echinochloa crus-galli; settings: Flood, scale of 0 to 100 where 0 is no effect and 100 is complete control
In short: as §2

wheat = assay: Test A pre-/postemergence herbicide test; assay type: in vivo, Triticum aestivum
In short: as §1

sedge, umbrella = assay: Test B flooded paddy test; assay type: in vivo, Cyperus difformis; settings: Flood, scale of 0 to 100 where 0 is no effect and 100 is complete control
In short: as §2

crabgrass, large = assay: Test A pre-/postemergence herbicide test; assay type: in vivo, Digitaria sanguinalis
In short: as §1

morningglory = assay: Test A pre-/postemergence herbicide test; assay type: in vivo, Ipomoea spp.
In short: as §1

pigweed = assay: Test A pre-/postemergence herbicide test; assay type: in vivo, Amaranthus retroflexus
In short: as §1

rice = assay: Test B flooded paddy test; assay type: in vivo, Oryza sativa; settings: Flood, scale of 0 to 100 where 0 is no effect and 100 is complete control
In short: as §2

[3] = 125 g ai/ha, visual rating, 0 to 100 scale, 0 no effect, 100 complete control, approximately 10 days, preemergence
[4] = Postemergence, 125 g ai/ha, 0 to 100 scale, 0 no effect, 100 complete control
[5] = Postemergence, 500 g ai/ha, 0 to 100 scale (0 no effect, 100 complete control)
[6] = preemergence, 500 g ai/ha, 0 to 100 scale (0 no effect, 100 complete control)
[7] = preemergence, 500 g ai/ha, 0 to 100 scale
[8] = Postemergence, 125 g ai/ha, 0 to 100 scale, 0 is no effect, 100 is complete control
[9] = Preemergence, 125 g ai/ha, 0 to 100 scale where 0 is no effect and 100 is complete control
[10] = preemergence, 500 g ai/ha, 0 to 100 scale, 0 is no effect and 100 is complete control
[11] = Preemergence, 125 g ai/ha, visual rating on 0 to 100 scale (0 no effect, 100 complete control)

O=C1NCC(c2ccc3ccccc3c2)C1C(=O)Nc1ccccc1C(F)(F)F (racemic) [Compound 117]
Plant response rating, Barnyardgrass (barnyardgrass [1]; [3]): 0 | Plant response rating, Barnyardgrass (barnyardgrass [1]; [4]): 0 | Plant response rating, Barnyardgrass (barnyardgrass [1]; [5]): 30 | Plant response rating, Barnyardgrass (barnyardgrass [1]; [6]): 20 | Plant response rating, Velvetleaf (velvetleaf; [3]): 0 | Plant response rating, Velvetleaf (velvetleaf; [4]): 0 | Velvetleaf plant response rating (0 to 100 scale, 0 is no effect, 100 is complete control) (velvetleaf; Postemergence, 500 g ai/ha): 0 | Plant response rating, Velvetleaf (velvetleaf; [7]): 0 | Plant response rating, Corn (corn; [3]): 0 | Plant response rating, Corn (corn; [4]): 0 | Plant response rating, Corn (corn; [5]): 20 | Plant response rating, Corn (corn; [7]): 0 | Plant response rating, Foxtail, Giant (giant foxtail; [3]): 20 | Plant response rating, Foxtail, Giant (giant foxtail; [4]): 20 | Foxtail, Giant plant response rating (0 to 100 scale, 0 is no effect, 100 is complete control) (giant foxtail; Postemergence, 500 g ai/ha): 50 | Plant response rating, Foxtail, Giant (giant foxtail; [7]): 70 | Plant response rating, Ducksalad (ducksalad; 1000 g ai/ha): 90 | Plant response rating, Barnyardgrass (barnyardgrass [2]; 1000 g ai/ha): 40 | Plant response rating, Wheat (wheat; [3]): 0 | Plant response rating, Wheat (wheat; [4]): 0 | Wheat plant response rating (0 to 100 scale, 0 is no effect, 100 is complete control) (wheat; Postemergence, 500 g ai/ha): 0 | Plant response rating, Wheat (wheat; [7]): 0 | Plant response rating, Sedge, Umbrella (sedge, umbrella; 1000 g ai/ha): 0 | Plant response rating, Crabgrass, Large (crabgrass, large; [3]): 60 | Plant response rating, Crabgrass, Large (crabgrass, large; [4]): 30 | Crabgrass, Large plant response rating (0 to 100 scale, 0 is no effect, 100 is complete control) (crabgrass, large; Postemergence, 500 g ai/ha): 60 | Plant response rating, Crabgrass, Large (crabgrass, large; [7]): 80 | Plant response rating, Morningglory (morningglory; [3]): 0 | Plant response rating, Morningglory (morningglory; [4]): 0 | Morningglory plant response rating (0 to 100 scale, 0 is no effect, 100 is complete control) (morningglory; Postemergence, 500 g ai/ha): 0 | Plant response rating, Morningglory (morningglory; [7]): 0 | Plant response rating, Pigweed (pigweed; [3]): 0 | Plant response rating, Pigweed (pigweed; [4]): 0 | Pigweed plant response rating (0 to 100 scale, 0 is no effect, 100 is complete control) (pigweed; Postemergence, 500 g ai/ha): 0 | Plant response rating, Pigweed (pigweed; [7]): 0 | Plant response rating, Rice (rice; 1000 g ai/ha): 0

O=C1NCC(c2ccc(OC(F)(F)F)cc2)C1C(=O)Nc1ccccc1C(F)(F)F (racemic) [Compound 258]
Plant response rating, Barnyardgrass (barnyardgrass [1]; [8]): 40 | Plant response rating, Barnyardgrass (barnyardgrass [1]; [5]): 80 | Plant response rating, Barnyardgrass (barnyardgrass [1]; [9]): 20 | Plant response rating, Barnyardgrass (barnyardgrass [1]; [10]): 90 | Plant response rating, Velvetleaf (velvetleaf; [8]): 0 | Plant response rating, Velvetleaf (velvetleaf; [5]): 0 | Plant response rating, Velvetleaf (velvetleaf; [9]): 0 | Plant response rating, Velvetleaf (velvetleaf; [10]): 0 | Plant response rating, Corn (corn; [8]): 0 | Plant response rating, Corn (corn; [5]): 20 | Plant response rating, Corn (corn; [9]): 0 | Plant response rating, Corn (corn; [10]): 0 | Plant response rating, Foxtail, Giant (giant foxtail; [8]): 60 | Plant response rating, Foxtail, Giant (giant foxtail; [5]): 80 | Plant response rating, Foxtail, Giant (giant foxtail; [9]): 50 | Plant response rating, Foxtail, Giant (giant foxtail; [10]): 90 | Plant response rating, Ducksalad (ducksalad; 250 g ai/ha): 60 | Plant response rating, Barnyardgrass (barnyardgrass [2]; 250 g ai/ha): 0 | Plant response rating, Wheat (wheat; [8]): 0 | Plant response rating, Wheat (wheat; [5]): 30 | Plant response rating, Wheat (wheat; [9]): 0 | Plant response rating, Wheat (wheat; [10]): 0 | Plant response rating, Sedge, Umbrella (sedge, umbrella; 250 g ai/ha): 40 | Plant response rating, Crabgrass, Large (crabgrass, large; [8]): 80 | Plant response rating, Crabgrass, Large (crabgrass, large; [5]): 90 | Plant response rating, Crabgrass, Large (crabgrass, large; [9]): 90 | Plant response rating, Crabgrass, Large (crabgrass, large; [10]): 90 | Plant response rating, Morningglory (morningglory; [8]): 0 | Plant response rating, Morningglory (morningglory; [5]): 0 | Plant response rating, Morningglory (morningglory; [9]): 0 | Plant response rating, Morningglory (morningglory; [10]): 0 | Plant response rating, Pigweed (pigweed; [8]): 0 | Plant response rating, Pigweed (pigweed; [5]): 0 | Plant response rating, Pigweed (pigweed; [9]): 0 | Plant response rating, Pigweed (pigweed; [10]): 0 | Plant response rating, Rice (rice; 250 g ai/ha): 0

O=C1NCC(c2ccc3c(c2)OC(F)(F)O3)C1C(=O)Nc1ccccc1C(F)(F)F (racemic) [Compound 75]
Plant response rating, Barnyardgrass (barnyardgrass [1]; [4]): 40 | Plant response rating, Barnyardgrass (barnyardgrass [1]; [5]): 70 | Barnyardgrass plant response rating (barnyardgrass [1]; [11]): 50 | Plant response rating, Barnyardgrass (barnyardgrass [1]; [6]): 70 | Plant response rating, Velvetleaf (velvetleaf; [4]): 10 | Plant response rating, Velvetleaf (velvetleaf; [5]): 20 | Velvetleaf plant response rating (velvetleaf; [11]): 0 | Plant response rating, Velvetleaf (velvetleaf; [7]): 0 | Plant response rating, Corn (corn; [4]): 0 | Plant response rating, Corn (corn; [5]): 0 | Corn plant response rating (corn; [11]): 0 | Plant response rating, Corn (corn; [7]): 0 | Plant response rating, Foxtail, Giant (giant foxtail; [4]): 70 | Plant response rating, Foxtail, Giant (giant foxtail; [5]): 80 | Foxtail, Giant plant response rating (giant foxtail; [11]): 80 | Plant response rating, Foxtail, Giant (giant foxtail; [7]): 90 | Plant response rating, Ducksalad (ducksalad; 250 g ai/ha): 0 | Plant response rating, Barnyardgrass (barnyardgrass [2]; 250 g ai/ha): 0 | Plant response rating, Wheat (wheat; [4]): 0 | Plant response rating, Wheat (wheat; [5]): 30 | Wheat plant response rating (wheat; [11]): 0 | Plant response rating, Wheat (wheat; [7]): 30 | Plant response rating, Sedge, Umbrella (sedge, umbrella; 250 g ai/ha): 0 | Plant response rating, Crabgrass, Large (crabgrass, large; [4]): 60 | Plant response rating, Crabgrass, Large (crabgrass, large; [5]): 80 | Crabgrass, Large plant response rating (crabgrass, large; [11]): 90 | Plant response rating, Crabgrass, Large (crabgrass, large; [7]): 90 | Plant response rating, Morningglory (morningglory; [4]): 0 | Plant response rating, Morningglory (morningglory; [5]): 0 | Morningglory plant response rating (morningglory; [11]): 0 | Plant response rating, Morningglory (morningglory; [7]): 0 | Plant response rating, Pigweed (pigweed; [4]): 0 | Plant response rating, Pigweed (pigweed; [5]): 0 | Pigweed plant response rating (pigweed; [11]): 0 | Plant response rating, Pigweed (pigweed; [7]): 0 | Plant response rating, Rice (rice; 250 g ai/ha): 0
